Reference: patent US12404241B2 (Celgene Corporation, priority 2018, dated 2025)
Counter-ions that a name gives are not always drawn.

Target: T1, AR (Homo sapiens, UniProt P10275)
T1 construct: endogenous in cells; host or cells: VCaP cells
T1 sequence (P10275 1-920): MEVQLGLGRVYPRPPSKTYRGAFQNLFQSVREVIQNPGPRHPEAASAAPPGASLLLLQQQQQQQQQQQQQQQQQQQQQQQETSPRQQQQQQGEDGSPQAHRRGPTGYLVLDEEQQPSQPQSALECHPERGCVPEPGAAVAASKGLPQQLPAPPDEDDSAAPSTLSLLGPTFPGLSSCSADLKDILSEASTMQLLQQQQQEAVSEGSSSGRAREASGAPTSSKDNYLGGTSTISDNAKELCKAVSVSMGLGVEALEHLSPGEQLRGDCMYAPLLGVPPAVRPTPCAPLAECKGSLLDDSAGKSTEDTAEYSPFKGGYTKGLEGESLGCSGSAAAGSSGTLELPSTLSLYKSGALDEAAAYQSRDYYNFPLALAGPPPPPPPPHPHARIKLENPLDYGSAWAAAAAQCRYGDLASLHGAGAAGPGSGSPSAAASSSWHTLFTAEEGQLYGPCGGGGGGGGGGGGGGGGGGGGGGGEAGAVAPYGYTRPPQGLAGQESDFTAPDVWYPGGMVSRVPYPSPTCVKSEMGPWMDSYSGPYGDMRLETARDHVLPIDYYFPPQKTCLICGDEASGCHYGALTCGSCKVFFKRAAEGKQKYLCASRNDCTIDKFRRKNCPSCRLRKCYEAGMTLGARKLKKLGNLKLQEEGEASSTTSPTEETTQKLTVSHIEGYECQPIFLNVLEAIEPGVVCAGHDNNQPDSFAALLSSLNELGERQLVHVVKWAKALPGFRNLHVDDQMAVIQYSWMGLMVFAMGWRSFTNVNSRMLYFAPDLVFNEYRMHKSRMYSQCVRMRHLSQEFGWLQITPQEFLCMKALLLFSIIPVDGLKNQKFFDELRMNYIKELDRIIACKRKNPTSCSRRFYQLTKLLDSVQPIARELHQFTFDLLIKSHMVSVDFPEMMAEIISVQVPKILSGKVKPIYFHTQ
Experiment: VCAP AR Degradation Assay
Format: cell-based
Settings: for Y (AR degradation efficiency, % of DMSO control): class symbols *; for DC50: class symbols A-C, read-out: DC50
Procedure, shortened: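 24 h, 37 °C, VCaP (DMEM/8% FBS), 10-pt 1:3 dilutions from 5 μM final top, 0.1% DMSO ctrl. Lysis on ice/4 °C 1 h; total AR by sandwich ELISA, normalized to DMSO. 4PL fit → DC50, EC50, Y (min AR level).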

SMILES | Y (AR degradation efficiency, % of DMSO control) | DC50
CCc1cc(N2C(=S)N(c3cnc(C#N)c(C(F)(F)F)c3)C(=O)C2(C)C)ccc1OCCN1CCN([C@@H](C)C(=O)Nc2cc(F)cc(NC3CCC(=O)NC3=O)c2)CC1 (stereo partly drawn) [Example 116, (2S)-2-(4-(2-(4-(3-(6-cyano-5-(trifluoromethyl)pyridin-3-yl)-5,5-dimethyl-4-oxo-2-thioxoimidazolidin-1-yl)-2-ethylphenoxy)ethyl)piperazin-1-yl)-N-(3-(2,6-dioxopiperidin-3-ylamino)-5-fluorophenyl)propanamide] | * (0<Y<=25%) | < 100 nM
CCc1cc(N2C(=S)N(c3cnc(C#N)c(C(F)(F)F)c3)C(=O)C2(C)C)ccc1OCCN1CCN(CC(=O)Nc2cc(Cl)cc(NC3CCC(=O)NC3=O)c2)C(C)(C)C1 (centres unmarked) [Example 78, N-(3-chloro-5-(2,6-dioxopiperidin-3-ylamino)phenyl)-2-(4-(2-(4-(3-(6-cyano-5-(trifluoromethyl)pyridin-3-yl)-5,5-dimethyl-4-oxo-2-thioxoimidazolidin-1-yl)-2-ethylphenoxy)ethyl)-2,2-dimethylpiperazin-1-yl)acetamide] | * (0<Y<=25%) | < 100 nM
CCc1cc(N2C(=S)N(c3ccc(C#N)c(C(F)(F)F)c3)C(=O)C2(C)C)ccc1OCCN1CCN(CC(=O)Nc2cc(F)cc(NC3CCC(=O)NC3=O)c2)[C@H](C)C1 (stereo partly drawn) [Example 90, 2-((R)-4-(2-(4-(3-(4-cyano-3-(trifluoromethyl)phenyl)-5,5-dimethyl-4-oxo-2-thioxoimidazolidin-1-yl)-2-ethylphenoxy)ethyl)-2-methylpiperazin-1-yl)-N-(3-(2,6-dioxopiperidin-3-ylamino)-5-fluorophenyl)acetamide] | * (0<Y<=25%) | < 100 nM
CC(F)(F)c1cc(N2C(=S)N(c3ccc(C#N)c(C(F)(F)F)c3)C(=O)C2(C)C)ccc1OCCN1CCN(CC(=O)Nc2cccc(NC3CCC(=O)NC3=O)c2)CC1 (centres unmarked) [Example 59, 2-(4-(2-(4-(3-(4-cyano-3-(trifluoromethyl)phenyl)-5,5-dimethyl-4-oxo-2-thioxoimidazolidin-1-yl)-2-(1,1-difluoroethyl)phenoxy)ethyl)piperazin-1-yl)-N-(3-(2,6-dioxopiperidin-3-ylamino)phenyl)acetamide] | * (0<Y<=25%) | < 100 nM
N#Cc1ccc(N2C(=O)C3(CCOC3)N(c3ccc(OCCN4CCN(CC(=O)Nc5cc(Cl)cc(NC6CCC(=O)NC6=O)c5)CC4)c(F)c3)C2=S)cc1C(F)(F)F (single isomer, unassigned) [Example 54, N-(3-chloro-5-(2,6-dioxopiperidin-3-ylamino)phenyl)-2-(4-(2-(4-(3-(4-cyano-3-(trifluoromethyl)phenyl)-4-oxo-2-thioxo-7-oxa-1,3-diazaspiro[4.4]nonan-1-yl)-2-fluorophenoxy)ethyl)piperazin-1-yl)acetamide] | * (0<Y<=25%) | < 100 nM
CCc1cc(N2C(=S)N(c3cnc(C#N)c(C(F)(F)F)c3)C(=O)C2(C)C)ccc1OCCN1C[C@@H](C)N(CC(=O)Nc2cc(Cl)cc(NC3CCC(=O)NC3=O)c2)C[C@H]1C (stereo partly drawn) [Example 169, N-(3-chloro-5-(2,6-dioxopiperidin-3-ylamino)phenyl)-2-((2R,5R)-4-(2-(4-(3-(6-cyano-5-(trifluoromethyl)pyridin-3-yl)-5,5-dimethyl-4-oxo-2-thioxoimidazolidin-1-yl)-2-ethylphenoxy)ethyl)-2,5-dimethylpiperazin-1-yl)acetamide] | * (0<Y<=25%) | < 100 nM
CCc1cc(N2C(=S)N(c3cnc(C#N)c(C(F)(F)F)c3)C(=O)C2(C)C)ccc1OCCN1C[C@H]2CC[C@@H]1CN2CC(=O)Nc1cccc(NC2CCC(=O)NC2=O)c1 (stereo partly drawn) [Example 183, 2-((1R,4R)-5-(2-(4-(3-(6-cyano-5-(trifluoromethyl)pyridin-3-yl)-5,5-dimethyl-4-oxo-2-thioxoimidazolidin-1-yl)-2-ethylphenoxy)ethyl)-2,5-diazabicyclo[2.2.2]octan-2-yl)-N-(3-(2,6-dioxopiperidin-3-ylamino)phenyl)acetamide] | ** (25%<Y<=35%) | 100 to 500 nM
Cc1cc(OCCN2C[C@@H](C)N(CC(=O)Nc3cccc(NC4CCC(=O)NC4=O)c3)[C@@H](C)C2)c(C(C)C)cc1N1C(=S)N(c2ccc(C#N)c(C(F)(F)F)c2)C(=O)C1(C)C (stereo partly drawn) [Example 253, 2-((2S,6R)-4-(2-(4-(3-(4-cyano-3-(trifluoromethyl)phenyl)-5,5-dimethyl-4-oxo-2-thioxoimidazolidin-1-yl)-2-isopropyl-5-methylphenoxy)ethyl)-2,6-dimethylpiperazin-1-yl)-N-(3-(2,6-dioxopiperidin-3-ylamino)phenyl)acetamide] | * (0<Y<=25%) | 100 to 500 nM
C[C@@H]1CN(CCOc2ccc(N3C(=S)N(c4cnc(C#N)c(C(F)(F)F)c4)C(=O)C3(C)C)cc2C2CC2)C[C@H](C)N1CC(=O)Nc1cccc(NC2CCC(=O)NC2=O)c1 (stereo partly drawn) [Example 235, 2-((2S,6R)-4-(2-(4-(3-(6-cyano-5-(trifluoromethyl)pyridin-3-yl)-5,5-dimethyl-4-oxo-2-thioxoimidazolidin-1-yl)-2-cyclopropylphenoxy)ethyl)-2,6-dimethylpiperazin-1-yl)-N-(3-(2,6-dioxopiperidin-3-ylamino)phenyl)acetamide] | * (0<Y<=25%) | < 100 nM
CC(C)c1cc(N2C(=S)N(c3ccc(C#N)c(Cl)c3)C(=O)C2(C)C)ccc1OCCN1C[C@@H](C)N(CC(=O)Nc2cc(C#N)cc(NC3CCC(=O)NC3=O)c2)[C@@H](C)C1 (stereo partly drawn) [Example 250, 2-((2S,6R)-4-(2-(4-(3-(3-chloro-4-cyanophenyl)-5,5-dimethyl-4-oxo-2-thioxoimidazolidin-1-yl)-2-isopropylphenoxy)ethyl)-2,6-dimethylpiperazin-1-yl)-N-(3-cyano-5-(2,6-dioxopiperidin-3-ylamino)phenyl)acetamide] | * (0<Y<=25%) | < 100 nM
CCc1cc(N2C(=S)N(c3cnc(C#N)c(C(F)(F)F)c3)C(=O)C2(C)C)ccc1OCCN1CCN(CC(=O)Nc2cccc(NC3CCC(=O)NC3=O)c2)CC1 (centres unmarked) [Example 22, hydrochloride] | * (0<Y<=25%) | < 100 nM
CCc1cc(N2C(=S)N(c3cnc(C#N)c(C(F)(F)F)c3)C(=O)C2(C)C)ccc1OCCN1CCN(CC(=O)Nc2cccc(NC3CCC(=O)NC3=O)c2)[C@H](C(F)(F)F)C1 (stereo partly drawn) [Example 201, 2-((S)-4-(2-(4-(3-(6-cyano-5-(trifluoromethyl)pyridin-3-yl)-5,5-dimethyl-4-oxo-2-thioxoimidazolidin-1-yl)-2-ethylphenoxy)ethyl)-2-(trifluoromethyl)piperazin-1-yl)-N-(3-(2,6-dioxopiperidin-3-ylamino)phenyl)acetamide] | * (0<Y<=25%) | < 100 nM
CC(C)Cc1cc(N2C(=S)N(c3ccc(C#N)c(C(F)(F)F)c3)C(=O)C2(C)C)ccc1OCCN1CCN(CC(=O)Nc2cccc(NC3CCC(=O)NC3=O)c2)CC1 (centres unmarked) [Example 18] | * (0<Y<=25%) | < 100 nM
CCc1cc(N2C(=S)N(c3cnc(C#N)c(C(F)(F)F)c3)C(=O)C23CCC3)ccc1OCCN1CCN(CC(=O)Nc2cc(Cl)cc(NC3CCC(=O)NC3=O)c2)[C@H](C)C1 (stereo partly drawn) [Example 106, N-(3-chloro-5-(2,6-dioxopiperidin-3-ylamino)phenyl)-2-((R)-4-(2-(4-(7-(6-cyano-5-(trifluoromethyl)pyridin-3-yl)-8-oxo-6-thioxo-5,7-diazaspiro[3.4]octan-5-yl)-2-ethylphenoxy)ethyl)-2-methylpiperazin-1-yl)acetamide] | * (0<Y<=25%) | < 100 nM
CCc1cc(N2C(=S)N(c3ccc(C#N)c(C(F)(F)F)c3)C(=O)C2(C)C)ccc1O[C@H](C)CN1C[C@@H](C)N(CC(=O)Nc2cccc(NC3CCC(=O)NC3=O)c2)[C@@H](C)C1 (single isomer, unassigned) [Example 241] | * (0<Y<=25%) | 100 to 500 nM
CCc1cc(N2C(=S)N(c3cnc(C#N)c(C(F)(F)F)c3)C(=O)C2(C)C)ccc1OCCN1CCN(CC(=O)Nc2cccc(N[C@@H]3CCC(=O)NC3=O)c2)[C@H](C)C1 [Example 138, 2-((R)-4-(2-(4-(3-(6-cyano-5-(trifluoromethyl)pyridin-3-yl)-5,5-dimethyl-4-oxo-2-thioxoimidazolidin-1-yl)-2-ethylphenoxy)ethyl)-2-methylpiperazin-1-yl)-N-(3-((R)-2,6-dioxopiperidin-3-ylamino)phenyl)acetamide] | * (0<Y<=25%) | < 100 nM
